From ChEMBL document CHEMBL1201862, “PubChem BioAssay data set” (2004)
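Results reflect a 48-hour exposure of cells in 96-well plates to compound at five concentrations. Here, GI50 denotes the concentration required for 50% inhibition of growth.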 The source made the active and inactive calls. No stated cut-off is given here; in the data, active = GI50 up to about 1.1 µM and inactive = higher.

Assays:
Experiment in all cases: NCI tumour cell line growth inhibition, 48 h
[1] = system: SNB-75
[2] = system: HT-29
[3] = system: IGROV-1
[4] = system: SF-295
[5] = system: SF-268
[6] = system: SF-539
[7] = system: M14
[8] = system: OVCAR-4
[9] = system: SK-OV-3
[10] = system: MOLT-4
[11] = system: 786-0
[12] = system: RPMI-8226
[13] = system: SN12C
[14] = system: HOP-62
[15] = system: KM12
[16] = system: OVCAR-8
[17] = system: NCI-H23
[18] = system: MDA-MB-231

Measured: GI50

COC(=O)C1CCC[C@H]2C(CO)=C(C)C(=O)[C@@H]12 (stereo not given in full)
inactive: [1] > 100 µM | [2] > 100 µM | [3] > 100 µM | [4] > 100 µM | [5] > 100 µM | [6] > 100 µM | [7] > 100 µM | [8] > 100 µM | [9] > 100 µM | [10] > 100 µM | [11] > 100 µM | [12] > 100 µM | [13] > 100 µM | [14] > 100 µM | [15] > 100 µM | [16] > 100 µM | [17] > 100 µM

N#C/N=C(/N)NCO
inactive: [1] > 100 µM | [2] > 64.1 µM | [3] > 100 µM | [4] > 100 µM | [5] 63.5 µM | [6] > 100 µM | [7] > 100 µM | [8] > 100 µM | [9] > 100 µM | [10] > 100 µM | [11] > 43.8 µM | [12] > 48.2 µM | [13] > 100 µM | [14] > 100 µM | [15] > 40 µM | [16] > 100 µM | [17] > 100 µM

O=c1nc(-c2ccccc2)scc1-c1ccccc1
inactive: [1] > 100 µM | [2] > 100 µM | [3] > 100 µM | [4] > 100 µM | [5] 86.3 µM | [6] > 100 µM | [7] > 100 µM | [8] > 100 µM | [9] > 100 µM | [10] > 100 µM | [11] 78.3 µM | [12] > 100 µM | [13] > 100 µM | [14] 44.7 µM | [15] > 100 µM | [16] > 100 µM | [17] > 100 µM

Cc1nc2c(o1)/C(=N\c1ccccc1)c1ccccc1/C2=N/c1ccccc1
inactive: [1] 61.8 µM | [2] 94.2 µM | [3] > 100 µM | [4] > 100 µM | [5] > 100 µM | [6] > 100 µM | [7] 51.5 µM | [8] 58.7 µM | [9] > 100 µM | [10] > 100 µM | [11] 45.1 µM | [12] 47 µM | [13] 63.4 µM | [14] > 100 µM | [15] 85.5 µM | [16] > 100 µM | [17] 49.2 µM

Cc1cccc(C(C)(C)C)c1NC(=O)CCc1nnc(S)[nH]1
inactive: [1] > 100 µM | [2] > 100 µM | [3] > 100 µM | [4] > 100 µM | [5] > 100 µM | [6] > 100 µM | [7] > 100 µM | [8] > 100 µM | [9] > 100 µM | [10] > 100 µM | [11] > 100 µM | [12] > 100 µM | [13] > 100 µM | [14] > 100 µM | [15] > 100 µM | [16] > 100 µM | [17] > 100 µM

CS/C(=N\C(=S)N(C)C)N(c1ccccc1)c1nc(N(C)C)s[s+]1
inactive: [1] 3.18 µM | [2] 2.67 µM | [3] 77.3 µM | [4] 16.7 µM | [5] 12.1 µM | [6] 7.67 µM | [7] 4.83 µM | [8] 12.2 µM | [9] 41.3 µM | [10] 3.08 µM | [11] 16.4 µM | [12] 1.84 µM | [13] 13.1 µM | [14] 19.5 µM | [15] 3.65 µM | [16] 10.4 µM | [17] 12.4 µM

N#CCCc1nc2ccc(Br)cc2c(=O)n1-c1ccc(O)c([N+](=O)[O-])c1
inactive: [1] 26.7 µM | [2] 27.7 µM | [3] 20.6 µM | [4] 20.1 µM | [5] 24.1 µM | [6] 18.8 µM | [7] 21 µM | [8] 20.5 µM | [9] 38.5 µM | [10] 19.6 µM | [11] 19.3 µM | [12] 17.3 µM | [13] 19 µM | [14] 36.5 µM | [15] 18.5 µM | [16] 26.9 µM | [17] 20.8 µM

CCc1ccccc1NC(=O)CCc1n[nH]c(=S)o1
inactive: [1] > 100 µM | [2] > 100 µM | [3] > 100 µM | [4] > 100 µM | [5] > 100 µM | [6] 76.2 µM | [7] > 100 µM | [8] > 100 µM | [9] > 100 µM | [10] > 100 µM | [11] > 100 µM | [12] 98.9 µM | [13] > 100 µM | [14] > 100 µM | [15] > 100 µM | [16] > 100 µM | [17] > 100 µM

O=C(O)COc1ccccc1C(=O)Nc1ccccc1
inactive: [1] 77.8 µM | [2] > 100 µM | [3] > 100 µM | [4] > 100 µM | [5] > 100 µM | [6] > 100 µM | [7] > 100 µM | [8] > 100 µM | [9] > 100 µM | [10] > 100 µM | [11] > 100 µM | [12] > 100 µM | [13] > 100 µM | [14] > 100 µM | [15] > 100 µM | [16] > 100 µM | [17] > 100 µM

O=C1NCC2(CCNCC2)N1
inactive: [1] > 100 µM | [2] > 100 µM | [3] > 100 µM | [4] > 100 µM | [5] > 100 µM | [6] > 100 µM | [7] > 100 µM | [8] > 100 µM | [9] > 100 µM | [10] > 100 µM | [11] > 100 µM | [12] > 100 µM | [13] > 100 µM | [14] > 100 µM | [18] > 100 µM | [15] > 100 µM | [16] > 100 µM | [17] > 100 µM

Cc1cc(Cl)cc2c1NC(=O)C2(O)C(C)C(=O)c1ccc(Cl)cc1 (stereo not given)
inactive: [1] > 59.3 µM | [2] > 83.2 µM | [3] > 81.3 µM | [4] > 92.5 µM | [5] > 71.9 µM | [6] > 62.1 µM | [7] > 100 µM | [8] 21.8 µM | [9] > 100 µM | [10] 28.4 µM | [11] 85.7 µM | [12] 31.8 µM | [13] > 74.1 µM | [14] > 100 µM | [15] 99.1 µM | [16] > 85.9 µM | [17] > 72.1 µM

COC(=O)/C(=N/O)C(C(=O)OC)C(=O)C(=O)Nc1c(Cl)cc(C)cc1S(=O)(=O)O (stereo not given)
inactive: [1] > 100 µM | [2] > 100 µM | [3] > 100 µM | [4] > 100 µM | [5] > 100 µM | [6] > 100 µM | [7] > 100 µM | [8] > 100 µM | [9] > 100 µM | [10] > 100 µM | [11] > 100 µM | [12] 23.5 µM | [13] > 100 µM | [14] > 100 µM | [15] > 100 µM | [16] > 100 µM | [17] > 100 µM
